Experimental data as given in paper PMC4856263, “Probing the ATP Site of GRP78 with Nucleotide Triphosphate Analogs” (PLoS ONE, 2016).

Experiments:
[1] = biological target: T1, GRP78ATPase (ATPase domain of human GRP78, residues 26–407) (Homo sapiens, UniProt P11021); assay: Surface plasmon resonance (SPR) binding of nucleotides to immobilized GRP78ATPase; conditions: for Kd: 25 °C, mean ± SD, n = 3; for binding to GRP78ATPase upon removal of Mg++ (in words): 5 mM EDTA
T1 construct: GRP78ATPase (residues 26–407) was amplified from the full-length human GRP78; hexahistidine tag (pET28-MHL vector) (N); made in house; host or cells: E. coli BL-21(DE3)
T1 sequence (P11021 26-407): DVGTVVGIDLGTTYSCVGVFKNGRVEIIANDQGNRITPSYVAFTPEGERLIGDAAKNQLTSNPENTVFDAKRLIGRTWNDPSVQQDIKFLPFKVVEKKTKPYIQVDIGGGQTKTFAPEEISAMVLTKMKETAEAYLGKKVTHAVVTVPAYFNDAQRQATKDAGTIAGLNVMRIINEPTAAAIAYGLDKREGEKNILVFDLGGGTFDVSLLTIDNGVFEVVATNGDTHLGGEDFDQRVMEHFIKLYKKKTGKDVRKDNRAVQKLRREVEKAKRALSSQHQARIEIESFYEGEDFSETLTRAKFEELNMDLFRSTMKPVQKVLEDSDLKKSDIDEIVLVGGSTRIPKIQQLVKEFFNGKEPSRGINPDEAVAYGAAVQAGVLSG
Protocol: Successful transformants were grown in Luria Bertani broth (Sigma) for 16 hrs at 37°C, and then transferred to Terrific Broth (Sigma). Growth at 37°C continued until the OD600 reached ~3.0, whereupon the temperature was lowered to 18°C and protein expression was induced by the addition of 0.1 mM isopropyl β-D-thiogalactopyranoside. Sixteen hours post-induction, cells were collected by centrifugation and resuspended in binding buffer (30 mM Tris-HCl pH 7.5, 200 mM NaCl, 1 mM β-ME) supplemented with 0.1% octylphenoxypolyethoxyethanol, 1 mM benzamidine, and 1 mM phenylmethanesulfonyl fluoride. Cells were lysed by French press, and the lysates were clarified by centrifugation. The supernatant was loaded on to a nickel-nitrilotriacetic acid column pre-equilibrated with binding buffer. Following a wash step with binding buffer containing 30 mM imidazole, the bound protein was eluted using a linear gradient from 30 to 500 mM imidazole. The eluate was then loaded on to a 26/60 Superdex 200 size exclusion column (GE Healthcare) pre-equilibrated with 30 mM Tris-HCl pH 7.5, 200 mM NaCl and 1 mM β-ME. Target protein-containing fractions were pooled and concentrated to 30 mg/ml using 10-kDa centrifugal filter units (Amicon), and then frozen in aliquots at -80°C until further use
SPR measurements were performed on Biacore T200 instrument (GE Healthcare) at 25 °C. Purified GRP78ATPase was immobilized on a CM5 sensorchip using NHS/EDC coupling following the manufacturer protocol to a level of ~7000 RUs, a reference surfaces without immobilized GRP78ATPase served as a control for nonspecific binding and refractive index changes. […] Buffer alone injections were used as blanks. […] The running buffer was 10 mM HEPES, pH 7.4, 150 mM NaCl, 0.005% P20 and 2 mM MgCl2. Biacore equilibrium responses recorded at the end of the association step were used to determine the dissociation constant (Kd). Nonspecific signal binding was removed by subtracting a reference channel without GRP78ATPase. Binding responses at the different concentrations were globally fitted to a saturation-binding model in Prism 6 (GraphPad Software Inc., California).
The effect of Mg^++ on binding affinities was explored by repeating the same SPR protocol with two additional running buffers. The first running buffer contained no addition of Mg^++ to determine the effect of Mg^++ co-purified with GRP78ATPase (10 mM HEPES, pH 7.4, 150 mM NaCl and 0.005% P20), and the second running buffer contained 5 mM EDTA to chelate any Mg^++ present in the system (10 mM HEPES, pH 7.4, 150 mM NaCl, 0.005% P20 and 5 mM EDTA).

[2] = system: human ecto-nucleotidases (NTPDase1, 2, 3, 8 and NPP1 and 3); conditions: cited from earlier work
[3] = SPR running buffer untreated (no addition of either MgCl2 or EDTA)
[4] = SPR running buffer with 2 mM MgCl2
[5] = SPR running buffer with 5 mM EDTA (Mg++ removed)

| Structure (SMILES) | Kd [1, 3] [µM] | Kd [1, 4] [µM] | Kd [1, 5] [µM] | binding to GRP78ATPase upon removal of Mg++ (in words) [1] | affinity relative to ATP (in words) ([1]; purified GRP78ATPase, SPR) | hydrolysis by most human ecto-nucleotidases [2] |
| --- | --- | --- | --- | --- | --- | --- |
| Nc1ncnc2c1ncn2[C@@H]1O[C@H](COP(=O)(O)OP(=O)(O)CP(=O)(O)O)[C@@H](O)[C@H]1O [AMPPCP] | 52 | 59 | > 1000 | almost abolished binding | two-orders of magnitude lower |  |
| Nc1ncnc2c1ccn2C1OC(COP(=O)(O)OP(=O)(O)OP(=O)(O)O)C(O)C1O (stereo not drawn) [7-deazaATP] | 0.15 | 0.03 | 0.9 |  |  |  |
| Nc1ncnc2c1ncn2C1OC(COP(=O)(O)OP(=O)(O)C(Br)(Br)P(=O)(O)O)C(O)C1O (stereo not drawn) [AMPPCBrP] |  |  |  |  |  | cannot hydrolyze |

Now from value to compound, other results behind:

| Kd [1, 3] [µM] | Kd [1, 4] [µM] | Kd [1, 5] [µM] | Structure (SMILES) | binding to GRP78ATPase upon removal of Mg++ (in words) [1] | affinity relative to ATP (in words) ([1]; purified GRP78ATPase, SPR) | hydrolysis by most human ecto-nucleotidases [2] |
| --- | --- | --- | --- | --- | --- | --- |
| 0.78 | 0.45 | 9.8 | Nc1ncnc2c1ncn2[C@@H]1O[C@H](COP(=O)(O)OP(=O)(O)OP(=O)(O)O)[C@@H](O)[C@H]1O [ATP] |  |  |  |
| 750 |  | > 1000 | Nc1ncnc2c1ncn2[C@H]1C[C@H](O)[C@@H](COP(=O)(O)OP(=O)(O)OP(=O)(O)O)O1 [2'-deoxyATP] | nearly abolished the binding |  |  |
